Laboratory results as given in patent publication US12209087B2, “AKT1 modulators” (Alterome Therapeutics, Inc., priority 2022, dated 2025).

These compounds were tested against T1, full length AKT E17K (Homo sapiens, UniProt P31749, E17K) (assay: NanoBRET Target Engagement (TE) Assay). Details: competitive displacement of tracer in cells, read-out: AKT1 E17K IC50.
T1 construct: host or cells: HEK-293 (ATCC CRL-1573)
Assay type: cell-based
In short: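 Compound and tracer incubated 2 h before luminescence at donor 450 nm and acceptor 600 nm, with extracellular signal inhibited. EC50 by sigmoidal variable-slope regression.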

T1 sequence (P31749 whole entry E17K): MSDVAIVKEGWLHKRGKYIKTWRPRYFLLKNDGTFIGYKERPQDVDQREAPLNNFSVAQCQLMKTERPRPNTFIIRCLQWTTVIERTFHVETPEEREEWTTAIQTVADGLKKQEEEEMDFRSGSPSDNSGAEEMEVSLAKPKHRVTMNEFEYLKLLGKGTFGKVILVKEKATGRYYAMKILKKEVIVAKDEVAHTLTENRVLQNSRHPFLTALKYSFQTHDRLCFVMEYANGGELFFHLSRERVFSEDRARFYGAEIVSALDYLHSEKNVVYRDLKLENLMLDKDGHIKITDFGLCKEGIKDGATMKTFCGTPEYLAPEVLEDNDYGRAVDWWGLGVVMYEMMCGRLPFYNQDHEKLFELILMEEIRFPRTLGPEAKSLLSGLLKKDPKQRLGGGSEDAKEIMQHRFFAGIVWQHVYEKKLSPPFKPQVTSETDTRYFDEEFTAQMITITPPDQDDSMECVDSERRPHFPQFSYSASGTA

Structure (SMILES)	IC50 [µM]
CN1CCCN(c2ccc3nc(-c4cccnc4N)n(-c4ccc(CN5CCN(c6ccnc(C#N)n6)CC5)cc4)c3n2)CC1=O [Example 386, 4-(4-(4-(2-(2-Aminopyridin-3-yl)-5-(4-methyl-3-oxo-1,4-diazepan-1-yl)-3H-imidazo[4,5-b]pyridin-3-yl)benzyl)piperazin-1-yl)pyrimidine-2-carbonitrile]	0.015 to 0.06
N#Cc1ccnc(NC2CCN(Cc3ccc(-n4c(-c5cccnc5N)nc5ccc(-c6cccc(Cl)c6)nc54)cc3)CC2)n1 [Example 372, 2-((1-(4-(2-(2-Aminopyridin-3-yl)-5-(3-chlorophenyl)-3H-imidazo[4,5-b]pyridin-3-yl)benzyl)piperidin-4-yl)amino)pyrimidine-4-carbonitrile]	0.015 to 0.06

The remaining lines, values ahead:

IC50 [µM]	Structure (SMILES)
< 0.015	[2H]C([2H])([2H])Oc1ccc(-c2ccc3nc(-c4nccnc4N)n(-c4ccc(CN5CCC(Nc6ccnc(C#N)n6)CC5)cc4)c3n2)nc1 [Example 638, 4-((1-(4-(2-(3-Aminopyrazin-2-yl)-5-(5-(methoxy-d3)pyridin-2-yl)-3H-imidazo[4,5-b]pyridin-3-yl)benzyl)piperidin-4-yl)amino)pyrimidine-2-carbonitrile]
< 0.015	N#Cc1nccc(NC2CCN(Cc3ccc(-n4c(-c5cccnc5N)nc5ccc(-c6ccc(C(F)F)nc6)nc54)cc3)CC2)n1 [Example 645, 4-((1-(4-(2-(2-Aminopyridin-3-yl)-5-(6-(difluoromethyl)pyridin-3-yl)-3H-imidazo[4,5-b]pyridin-3-yl)benzyl)piperidin-4-yl)amino)pyrimidine-2-carbonitrile]
< 0.015	COc1cnc(-c2ccc3nc(-c4cccnc4N)n(-c4ccc(CN5CCC(Nc6ccnc(C#N)n6)CC5)cc4)c3n2)cn1 [Example 583, 4-((1-(4-(2-(2-Aminopyridin-3-yl)-5-(5-methoxypyrazin-2-yl)-3H-imidazo[4,5-b]pyridin-3-yl)benzyl)piperidin-4-yl)amino)pyrimidine-2-carbonitrile]
0.015 to 0.06	N#Cc1cnc2c(c1)nc(-c1cccnc1N)n2-c1ccc(CN2CCC(Nc3ccnc(C#N)n3)CC2)cc1 [Example 411, 2-(2-Aminopyridin-3-yl)-3-(4-((4-((2-cyanopyrimidin-4-yl)amino)piperidin-1-yl)methyl)phenyl)-3H-imidazo[4,5-b]pyridine-6-carbonitrile]
0.6 to 10	Cn1c(-c2ccc3nc(-c4cccnc4N)n(-c4ccc(CN5CCC(Nc6ccnc(C#N)n6)CC5)cc4)c3n2)cccc1=O [Example 393, 4-((1-(4-(2-(2-Aminopyridin-3-yl)-5-(1-methyl-6-oxo-1,6-dihydropyridin-2-yl)-3H-imidazo[4,5-b]pyridin-3-yl)benzyl)piperidin-4-yl)amino)pyrimidine-2-carbonitrile]
< 0.015	N#Cc1nccc(NC2CCN(Cc3ccc(-n4c(-c5cccnc5N)nc5ccc(-c6cnsc6)nc54)cc3)CC2)n1 [Example 480, 4-((1-(4-(2-(2-Aminopyridin-3-yl)-5-(isothiazol-4-yl)-3H-imidazo[4,5-b]pyridin-3-yl)benzyl)piperidin-4-yl)amino)pyrimidine-2-carbonitrile]
0.015 to 0.06	N#Cc1cc2c(cn1)nc(-c1cccnc1N)n2-c1ccc(CN2CCC(Nc3ccnc(C#N)n3)CC2)cc1 [Example 553, 2-(2-Aminopyridin-3-yl)-1-(4-((4-((2-cyanopyrimidin-4-yl)amino)piperidin-1-yl)methyl)phenyl)-1H-imidazo[4,5-c]pyridine-6-carbonitrile]
0.015 to 0.06	N#Cc1nccc(NC2CCN(Cc3ccc(-n4c(-c5cccnc5N)nc5ccc(-c6ccnc(OC(F)F)c6)nc54)cc3)CC2)n1 [Example 543, 4-((1-(4-(2-(2-aminopyridin-3-yl)-5-(2-(difluoromethoxy)pyridin-4-yl)-3H-imidazo[4,5-b]pyridin-3-yl)benzyl)piperidin-4-yl)amino)pyrimidine-2-carbonitrile]
< 0.015	[2H]C([2H])([2H])N(c1ccnc(C#N)n1)C1CCN(Cc2ccc(-n3c(-c4cccnc4N)nc4cc(C)c(C)nc43)cc2)CC1 [Example 455, 4-((1-(4-(2-(2-Aminopyridin-3-yl)-5,6-dimethyl-3H-imidazo[4,5-b]pyridin-3-yl)benzyl)piperidin-4-yl)(methyl-d3)amino)pyrimidine-2-carbonitrile]
< 0.015	Cc1nn(C)nc1-c1ccc2nc(-c3cccnc3N)n(-c3ccc(CN4CCC(Nc5ccnc(C#N)n5)CC4)cc3)c2n1 [Example 614, 4-((1-(4-(2-(2-Aminopyridin-3-yl)-5-(2,5-dimethyl-2H-1,2,3-triazol-4-yl)-3H-imidazo[4,5-b]pyridin-3-yl)benzyl)piperidin-4-yl)amino)pyrimidine-2-carbonitrile]
< 0.015	Cc1cccc(-c2ccc3nc(-c4cccnc4N)n(-c4ccc(CN5CCC(Nc6ccnc(C#N)n6)CC5)cc4)c3n2)c1 [Example 528, 4-((1-(4-(2-(2-Aminopyridin-3-yl)-5-(m-tolyl)-3H-imidazo[4,5-b]pyridin-3-yl)benzyl)piperidin-4-yl)amino)pyrimidine-2-carbonitrile]
< 0.015	N#Cc1nccc(NC2CCN(Cc3ccc(-n4c(-c5cccnc5N)nc5ccc(-c6ccncc6F)nc54)cc3)CC2)n1 [Example 551, 4-((1-(4-(2-(2-aminopyridin-3-yl)-5-(3-fluoropyridin-4-yl)-3H-imidazo[4,5-b]pyridin-3-yl)benzyl)piperidin-4-yl)amino)pyrimidine-2-carbonitrile]
< 0.015	CCOc1ccc(-c2ccc3nc(-c4cccnc4N)n(-c4ccc(CN5CCC(Nc6ccnc(C#N)n6)CC5)cc4)c3n2)cn1 [Example 584, 4-((1-(4-(2-(2-Aminopyridin-3-yl)-5-(6-ethoxypyridin-3-yl)-3H-imidazo[4,5-b]pyridin-3-yl)benzyl)piperidin-4-yl)amino)pyrimidine-2-carbonitrile]

Same assay, conditions: competitive tracer displacement in living cells, read-out: AKT1 E17K IC50

Structure (SMILES)	IC50 [µM]
N#Cc1cc(NC2CCN(Cc3ccc(-n4c(-c5cccnc5N)nc5cccnc54)cc3)CC2)ccn1 [Example 62, 4-((1-(4-(2-(2-Aminopyridin-3-yl)-3H-imidazo[4,5-b]pyridin-3-yl)benzyl)piperidin-4-yl)amino)picolinonitrile]	0.6 to 10
N#Cc1nccc(N2C3CCC2CN(Cc2ccc(-n4c(-c5cccnc5N)nc5ccc(-c6ccccc6)nc54)cc2)C3)n1 [Example 203, 4-(3-(4-(2-(2-Aminopyridin-3-yl)-5-phenyl-3H-imidazo[4,5-b]pyridin-3-yl)benzyl)-3,8-diazabicyclo[3.2.1]octan-8-yl)pyrimidine-2-carbonitrile]	0.06 to 0.6
N#Cc1cccnc1C(=O)N1CCN(Cc2ccc(-n3c(-c4cccnc4N)nc4ccc(-c5ccccc5)nc43)cc2)CC1 [Example 146, 2-(4-(4-(2-(2-Aminopyridin-3-yl)-5-phenyl-3H-imidazo[4,5-b]pyridin-3-yl)benzyl)piperazine-1-carbonyl)nicotinonitrile]	0.6 to 10
CC(=O)Nc1cccc(-c2ccc3nc(-c4cccnc4N)n(-c4ccc(CN5CCN(c6cncc(C#N)n6)CC5)cc4)c3n2)c1 [Example 40, N-(3-(2-(2-aminopyridin-3-yl)-3-(4-((4-(6-cyanopyrazin-2-yl)piperazin-1-yl)methyl)phenyl)-3H-imidazo[4,5-b]pyridin-5-yl)phenyl)acetamide]	< 0.015
Cn1cccc(-c2ccc3nc(-c4cccnc4N)n(-c4ccc(CN5CCN(c6ccnc(C#N)n6)CC5)cc4)c3n2)c1=O [Example 260, 4-(4-(4-(2-(2-aminopyridin-3-yl)-5-(1-methyl-2-oxo-1,2-dihydropyridin-3-yl)-3H-imidazo[4,5-b]pyridin-3-yl)benzyl)piperazin-1-yl)pyrimidine-2-carbonitrile]	0.015 to 0.06
N#Cc1cccnc1C(=O)NC1CCN(Cc2ccc(-n3c(-c4cccnc4N)nc4ccc(-c5ccccc5)nc43)cc2)CC1 [Example 61, N-(1-(4-(2-(2-Aminopyridin-3-yl)-5-phenyl-3H-imidazo[4,5-b]pyridin-3-yl)benzyl)piperidin-4-yl)-3-cyanopicolinamide]	< 0.015
CC(=O)Nc1cccc(-c2ccc3nc(-c4cccnc4N)n(-c4ccc(CN5CCN(c6cc(C#N)cnn6)CC5)cc4)c3n2)c1 [Example 45, N-(3-(2-(2-Aminopyridin-3-yl)-3-(4-((4-(5-cyanopyridazin-3-yl)piperazin-1-yl)methyl)phenyl)-3H-imidazo[4,5-b]pyridin-5-yl)phenyl)acetamide]	0.06 to 0.6
CN(C)C(=O)c1ccc2nc(-c3cccnc3N)n(-c3ccc(CN4CCC(Nc5ccnc(C#N)n5)CC4)cc3)c2n1 [Example 289, 2-(2-aminopyridin-3-yl)-3-(4-((4-((2-cyanopyrimidin-4-yl)amino)piperidin-1-yl)methyl)phenyl)-N,N-dimethyl-3H-imidazo[4,5-b]pyridine-5-carboxamide]	0.06 to 0.6
N#Cc1nccc(N2CCN(Cc3ccc(-n4c(-c5cccnc5N)nc5ccc(-c6ccccc6)nc54)cc3)CC2)n1 [Example 49, 4-(4-(4-(2-(2-Aminopyridin-3-yl)-5-phenyl-3H-imidazo[4,5-b]pyridin-3-yl)benzyl)piperazin-1-yl)pyrimidine-2-carbonitrile]	< 0.015
N#Cc1ccnc(C(=O)N2CCN(Cc3ccc(-n4c(-c5cccnc5N)nc5cccnc54)cc3)CC2)c1 [Example 149, 2-(4-(4-(2-(2-Aminopyridin-3-yl)-3H-imidazo[4,5-b]pyridin-3-yl)benzyl)piperazine-1-carbonyl)isonicotinonitrile]	0.6 to 10
N#Cc1ncnc(N2CCC3(CCN(Cc4ccc(-n5c(-c6cccnc6N)nc6ccc(-c7ccccc7)nc65)cc4)C3)CC2)n1 [Example 252, 4-(2-(4-(2-(2-Aminopyridin-3-yl)-5-phenyl-3H-imidazo[4,5-b]pyridin-3-yl)benzyl)-2,8-diazaspiro[4.5]decan-8-yl)-1,3,5-triazine-2-carbonitrile]	0.015 to 0.06
N#Cc1nccc(N2C[C@H]3C[C@@H]2CN3Cc2ccc(-n3c(-c4cccnc4N)nc4ccc(-c5ccccc5)nc43)cc2)n1 [Example 216, 4-((1R,4R)-5-(4-(2-(2-Aminopyridin-3-yl)-5-phenyl-3H-imidazo[4,5-b]pyridin-3-yl)benzyl)-2,5-diazabicyclo[2.2.1]heptan-2-yl)pyrimidine-2-carbonitrile]	< 0.015
